What was measured:
zebrafish embryos = assay: Zebrafish behavioral assay (light-dependent motor excitation, excitation score); format: in vivo
Procedure: To identify small molecules for the optical control of endogenous channels, a screen was conducted for compounds that could drive light-dependent motor behaviors in wild-type zebrafish. Zebrafish embryos are particularly well suited for phenotype based chemical screens^28,29. They are blind for the first 3 days of development and other than a one-time motor response to the first light exposure in dark-adapted animals (the photomotor response, PMR), zebrafish embryos are unresponsive to light^31,30 (FIG. 1A). A library of 10,000 structurally diverse synthetic small molecules was screened for compounds that render zebrafish embryos responsive to light. Behavioral responses were measured for each well in comparison to a set of 2,500 DMSO treated controls. This screen identified a single compound, optovin, that increased motor activity greater than 40 standard deviations above the control mean (FIGS. 1A-1C).
A large number of fertilized eggs (up to 5,000 embryos per day) were collected from group mating of Ekkwill or TuAB zebrafish. Embryos were raised in HEPES (10 mM) buffered E3 media in a dark incubator at 28° C. until […]. Groups of ˜8 embryos (28 hpf) were distributed into the wells of flat bottom black-walled 96 well plates filled with E3 media (360 μl). Embryos were then incubated in a dark incubator 25° C. for chemical treatment and subsequent experiments.
The Tim Tec ACTIPROBEβ library contains 10,000 compounds dissolved in DMSO at a stock concentration of 1 mg/ml (˜3 mM). The Tim Tec library was screened at a 1:300 dilution in E3 buffer for a final concentration of ˜10 μM. Negative controls were treated with an equal volume of DMSO. Stock solutions were added directly to zebrafish in the wells of a 96 well plate, mixed, and allowed to incubate for 2-10 hours in the dark prior to behavioral evaluation in the PMR assay. The Tim Tec library (10,000 compounds) was purchased from the Tim Tec corporation (Newark, Del.). The Neurotransmitter Library (700 compounds; cat #2810) was purchased from Biomol International. Reordered hit compounds were dissolved in DMSO and added to wells as described above.
Animals were exposed to a two pulse stimulus train with a 10 s inter-stimulus interval. Exposure to the first pulse was used to trigger the photomotor response, which has a refractory phase of approximately 10 minutes. […] In a typical assay, 1000 frames of digital video were recorded at 33 fps using a Hamamatsu ORCA-ER camera mounted on a Nikon TE200 microscope with a 1× objective. Instrument control and data measurement were performed using custom scripts for Metamorph Software (Molecular Devices). Each video was saved for review. Light stimuli were generated with a 300-watt xenon bulb housed in a Sutter Lambda LS illuminator and delivered to the well 10 s and 20 s after the start of each video. A cold mirror (reflectance between 300 nm and 700 nm) on the Sutter illuminator was used to block wavelengths outside of this range. Light intensity was measured using a PM100D power meter attached to a S120VC photodiode power sensor (Thorlabs). Where indicated, filters were used to restrict the excitation light to the indicated wavelengths.
To analyze digital video recordings, custom software scripts were used to automatically draw six evenly spaced line segments across each well such that each embryo is likely to be crossed by one of the lines. The software then tracks the average intensity of the pixels for each segment over time. As the embryos move, the light intensity at some of the pixels changes. The motion index was calculated by taking the total absolute difference in pixel intensity between frames. This motion index correlates with the overall amount of motion in the well, both in terms of contraction frequency and number of animals in motion. Behavioral features are quantified by ‘excitation scores’ that are calculated by taking the 75th percentile of the motion index for 3-5 s following the light stimulus. […]

hTRPA1 C633S = biological target: T1, hTRPA1 C633S (Homo sapiens, UniProt O75762, C633S); assay: Calcium imaging of transfected HEK cells; format: cell-based; conditions: compared with WT channels
T1 construct: expressed in transfected cells; host or cells: HEK293
T1 sequence (O75762 whole entry C633S): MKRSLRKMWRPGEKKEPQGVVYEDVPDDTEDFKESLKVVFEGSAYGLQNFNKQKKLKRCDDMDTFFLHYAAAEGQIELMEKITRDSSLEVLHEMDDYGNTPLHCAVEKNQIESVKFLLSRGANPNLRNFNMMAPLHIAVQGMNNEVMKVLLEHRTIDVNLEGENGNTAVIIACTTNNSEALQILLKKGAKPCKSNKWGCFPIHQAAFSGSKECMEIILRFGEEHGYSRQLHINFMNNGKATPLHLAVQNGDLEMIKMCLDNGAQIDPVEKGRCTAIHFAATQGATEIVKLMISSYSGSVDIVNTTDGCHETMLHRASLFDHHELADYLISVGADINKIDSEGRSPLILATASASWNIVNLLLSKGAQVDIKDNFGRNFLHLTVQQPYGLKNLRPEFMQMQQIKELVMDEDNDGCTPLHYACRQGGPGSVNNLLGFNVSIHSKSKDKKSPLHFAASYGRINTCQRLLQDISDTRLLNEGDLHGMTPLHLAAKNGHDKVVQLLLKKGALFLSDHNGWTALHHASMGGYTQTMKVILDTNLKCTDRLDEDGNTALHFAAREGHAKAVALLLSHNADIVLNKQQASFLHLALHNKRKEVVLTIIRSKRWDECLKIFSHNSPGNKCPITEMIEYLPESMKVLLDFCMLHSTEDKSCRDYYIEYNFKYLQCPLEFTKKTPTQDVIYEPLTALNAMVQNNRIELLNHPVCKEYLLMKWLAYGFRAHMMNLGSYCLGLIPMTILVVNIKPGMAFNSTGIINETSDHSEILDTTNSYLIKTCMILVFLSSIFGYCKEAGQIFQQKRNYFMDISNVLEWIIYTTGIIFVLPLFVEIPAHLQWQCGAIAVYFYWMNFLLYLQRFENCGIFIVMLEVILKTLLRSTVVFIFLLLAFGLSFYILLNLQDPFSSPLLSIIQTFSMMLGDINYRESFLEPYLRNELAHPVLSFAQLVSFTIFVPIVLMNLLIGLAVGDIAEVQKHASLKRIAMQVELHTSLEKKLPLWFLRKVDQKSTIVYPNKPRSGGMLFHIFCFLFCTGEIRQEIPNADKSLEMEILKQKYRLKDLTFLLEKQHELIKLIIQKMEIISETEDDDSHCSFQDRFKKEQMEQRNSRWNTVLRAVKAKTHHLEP
Procedure: (§1) Reactive electrophilic compounds activate TRPA1 channels through the covalent modification of specific cysteine residues including those at amino acid positions 621, 633, and 856. Point mutations in these cysteines can reduce hTRPA1 activation by specific ligands without disrupting overall channel function^39,40. To determine if these cysteine residues are also important for TRPA1 activation by optovin, intracellular calcium levels were measured in cells transfected with wildtype and mutant hTRPA1 channels. […] Rhodanine and hydantoin are photoelectric moieties used in photovoltaic panels and other photochemical applications^41,42. Nevertheless, photosensitization alone is insufficient to grant optovin its unusual biological activity. For example, optovin is phenotypically unique compared to 171 additional rhodanine-containing compounds contained in the screening library (data not shown).
(§2) HEK293 cells were plated onto poly-lysine-coated glass bottom culture dishes (MatTek Corp), and grown in Dulbecco's Modified Eagle's Medium (DMEM, Sigma) supplemented with 10% fetal bovine serum and 100 U/mL penicillin and 100 μg/ml streptomycin. After 24 hrs, cells were transfected, according to manufacturer's instructions, in Opti-MEM media, using 4 μl lipofectamine 2000 (Invitrogen), 0.5 ug EGFP in pcDNA, and 0.3 μg TrpA1 DNA per dish. Media was replaced after 2 hours, and cells were cultured for an additional 17 hours. As previously described for neurons, HEK cells were washed with assay buffer (HBSS Gibco 14025, supplemented with 9 mM HEPES, 11 mM D-glucose, 0.1% fatty-acid free BSA, pH 7.3) and incubated for 1 h with 2 μM Fura2-AM (Invitrogen) with 0.2% pluronic (Invitrogen) in assay buffer in the dark at room temperature. The cells were then washed with assay buffer and allowed to equilibrate at room temperature for 30 min prior to imaging. At the start of the imaging session for each dish, cells were replaced with DMSO-assay buffer. After 50 seconds of imaging, assay buffer was aspirated by hand, and replaced with 100 μM optovin dissolved in the DMSO-assay buffer solution. […]

hTRPA1 C621S = biological target: T2, hTRPA1 C621S (Homo sapiens, UniProt O75762, C621S); assay: Calcium imaging of transfected HEK cells; format: cell-based; conditions: compared with WT channels
T2 construct: expressed in transfected cells; host or cells: HEK293
T2 sequence (O75762 whole entry C621S): as the sequence (O75762 whole entry C633S) above, with C621S, S633C counted along it
Procedure: as §1, §2

[1] = biological target: T3, hTRPA1 C633S/C856S double mutant (Homo sapiens, UniProt O75762, C633S/C856S); assay: Calcium imaging of transfected HEK cells; format: cell-based; conditions: compared with WT channels
T3 construct: expressed in transfected cells; host or cells: HEK293
T3 sequence (O75762 whole entry C633S/C856S): as the sequence (O75762 whole entry C633S) above, with C856S counted along it
Procedure: as §1, §2

hERG potassium channel = hERG potassium channel (Homo sapiens, UniProt Q12809); assay: hERG inhibition, FluxOR system; format: cell-based; conditions: with or without prior exposure to light
Sequence of hERG potassium channel (Q12809 whole entry): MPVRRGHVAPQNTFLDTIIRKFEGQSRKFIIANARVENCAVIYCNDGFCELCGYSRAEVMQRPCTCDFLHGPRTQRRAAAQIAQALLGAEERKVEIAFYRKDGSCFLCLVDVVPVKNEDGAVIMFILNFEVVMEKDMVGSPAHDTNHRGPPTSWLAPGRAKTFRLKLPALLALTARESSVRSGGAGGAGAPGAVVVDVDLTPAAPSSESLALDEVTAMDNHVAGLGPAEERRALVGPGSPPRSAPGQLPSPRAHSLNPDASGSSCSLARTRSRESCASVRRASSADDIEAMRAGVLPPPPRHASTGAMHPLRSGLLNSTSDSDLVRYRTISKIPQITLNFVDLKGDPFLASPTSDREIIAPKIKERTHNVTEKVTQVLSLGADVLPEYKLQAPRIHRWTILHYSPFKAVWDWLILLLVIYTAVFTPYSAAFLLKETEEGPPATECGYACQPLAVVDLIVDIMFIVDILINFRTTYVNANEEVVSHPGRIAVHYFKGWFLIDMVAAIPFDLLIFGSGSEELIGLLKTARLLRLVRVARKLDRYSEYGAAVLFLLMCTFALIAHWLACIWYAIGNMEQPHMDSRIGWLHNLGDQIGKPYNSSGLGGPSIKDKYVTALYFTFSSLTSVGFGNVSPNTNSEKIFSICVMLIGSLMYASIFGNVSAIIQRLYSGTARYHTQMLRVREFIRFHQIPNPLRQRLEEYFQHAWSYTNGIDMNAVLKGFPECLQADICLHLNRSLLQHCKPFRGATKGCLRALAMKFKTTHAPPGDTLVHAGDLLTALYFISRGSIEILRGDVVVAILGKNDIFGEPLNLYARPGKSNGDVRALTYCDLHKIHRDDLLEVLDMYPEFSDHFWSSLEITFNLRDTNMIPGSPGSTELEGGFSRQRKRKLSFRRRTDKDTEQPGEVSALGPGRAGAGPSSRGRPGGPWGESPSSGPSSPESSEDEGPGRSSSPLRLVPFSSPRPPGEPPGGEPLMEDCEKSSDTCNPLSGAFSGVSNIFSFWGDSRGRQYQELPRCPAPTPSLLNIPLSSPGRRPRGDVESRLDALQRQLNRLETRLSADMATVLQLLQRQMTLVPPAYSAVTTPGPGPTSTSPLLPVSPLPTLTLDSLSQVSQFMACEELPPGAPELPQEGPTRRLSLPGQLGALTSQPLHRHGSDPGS
Procedure: Optovin (PDSP 22594) was tested for hERG inhibition using the FluxOR system with cisapride as a positive control.

## Cc1cc(/C=C2/SC(=S)NC2=O)c(C)n1-c1cccnc1 [optovin]
Zebrafish embryos; 10 μM, n=3, FIG. 4H
  light-dependent motor excitation in vivo: cause light-dependent motor excitation
Zebrafish embryos; 10 μM, n=5, FIG. 2A
  behavioral excitation (activity of optovin analogs): active
Zebrafish embryos; 387, 485, 560 nm or longer
  response to stimulus wavelengths: respond to 387 nm (violet) stimuli, but not to 485 nm (blue), 560 nm (green) or longer wavelengths
Zebrafish embryos; Danio rerio, dose response, n=5, read-out: EC50 of light-induced motor excitation (behavioral excitation score)
  EC50: 2000 nM
Zebrafish embryos; FIG. 4F
  behavioral excitation by singlet oxygen generating photosensitizers: only optovin causes behavioral excitation
Zebrafish embryos; TrpA1b homozygous mutant animals
  response to 387 nm light stimulus: failed to respond
Zebrafish embryos; depending on developmental stage
  latency of movement: 100 to 300 ms
Zebrafish embryos; radiation stimuli lasting between 5 and 20 seconds
  relation of stimulus and response duration: stimulus and response duration are proportional
Zebrafish embryos; screen at ~10 μM, light stimulus, vs DMSO treated controls
  increase in motor activity above the control mean (Z-score): greater than 40 standard deviations
Zebrafish embryos; trunks transected posterior to the hindbrain
  light response of spinalized preparations: respond to light
Zebrafish embryos; wild-type, TrpA1a heterozygous and TrpA1a homozygous mutant animals
  response to 387 nm light stimulus: respond to the 387 nm light stimulus with the typical prolonged motor excitation
Zebrafish embryos; zebrafish, in vivo
  Off rate (time between end of light stimulus and return to rest): 2 s
  On rate (latency between start of light stimulus and start of embryo movement): -150 ms
  lowest effective dose: 3 µM
  radiation stimulus intensity eliciting motor behavior: greater than 1.6 μW/mm^2
  response to repeated light pulses: multiple responses can be triggered with repeated light pulses
hTRPA1 C633S
  response to light and optovin (intracellular calcium): significantly decreased response
hTRPA1 C621S
  response to light and optovin (intracellular calcium): significantly decreased response
[1]
  response to light and optovin (intracellular calcium): significantly decreased response
hERG potassium channel
  effect on hERG activity: no effect on hERG activity

— patent publication US9486447B2, “Compositions and methods for controlling neuronal excitation” (The General Hospital Corporation, priority 2011, dated 2016)
